Columns and labels:
Format in all cases: in vivo
[1] = system: barnyardgrass (Echinochloa crus-galli); assay: Test A pre-/postemergence: barnyardgrass
How it was run: (§1)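 Injury is scored visually on a scale where 0 means no effect and 100 complete control, comparing treated with untreated plants after approximately ten greenhouse days. Both preemergence and postemergence applications are made at the same time.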

[2] = system: morningglory (Ipomoea spp.); assay: Test A pre-/postemergence: morningglory
How it was run: as §1

[3] = system: wheat (Triticum aestivum); assay: Test A pre-/postemergence: wheat
How it was run: as §1

[4] = system: corn (Zea mays); assay: Test A pre-/postemergence: corn
How it was run: as §1

[5] = system: blackgrass (Alopecurus myosuroides); assay: Test C pre-/postemergence: blackgrass
How it was run: (§2)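 Preemergence on seeds in loam/sand, postemergence on 2–18 cm (1–4-leaf) plants in peat-based medium; compounds in non-phytotoxic solvent with surfactant. After 13–15 days in greenhouse, visual rating versus controls, 0 (no effect) to 100 (complete control).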

[6] = system: ryegrass, Italian (Italian ryegrass, Lolium multiflorum); assay: Test C pre-/postemergence: ryegrass, Italian
How it was run: as §2

[7] = system: large crabgrass (Digitaria sanguinalis); assay: Test C pre-/postemergence: large crabgrass
How it was run: as §2

[8] = system: johnsongrass (Sorghum halepense); assay: Test C pre-/postemergence: johnsongrass
How it was run: as §2

[9] = system: nutsedge, yellow (yellow nutsedge, Cyperus esculentus); assay: Test C pre-/postemergence: nutsedge, yellow
How it was run: as §2

[10] = system: pigweed (Amaranthus retroflexus); assay: Test C pre-/postemergence: pigweed
How it was run: as §2

[11] = system: soybean (Glycine max); assay: Test C pre-/postemergence: soybean
How it was run: as §2

[12] = Postemergence, 1000 g ai/ha, visual rating on 0 to 100 scale (0 no effect, 100 complete control), approximately ten days
[13] = Preemergence, 1000 g ai/ha, 0 to 100 scale, 0 is no effect, 100 is complete control
[14] = Postemergence, 31 g ai/ha, scale 0 to 100 (0 no effect, 100 complete control)
[15] = Postemergence, 62 g ai/ha, scale 0 to 100 (0 no effect, 100 complete control)
[16] = Postemergence, 125 g ai/ha, scale 0 to 100, 0 no effect, 100 complete control
[17] = Postemergence, 250 g ai/ha, scale 0 to 100
[18] = Preemergence, 31 g ai/ha, scale of 0 to 100, 0 is no effect, 100 is complete control
[19] = Preemergence, 62 g ai/ha, scale 0 to 100, 0 no effect, 100 complete control
[20] = Preemergence, 125 g ai/ha, scale 0 to 100, 0 no effect, 100 complete control
[21] = Preemergence, 250 g ai/ha, scale 0 to 100, 0 no effect, 100 complete control
[22] = Preemergence, 62 g ai/ha, scale of 0 to 100, 0 is no effect, 100 is complete control
[23] = Postemergence, 125 g ai/ha, 0 to 100 scale, 0 is no effect, 100 is complete control
[24] = Postemergence, 500 g ai/ha, visual rating on 0 to 100 scale (0 no effect, 100 complete control), approximately ten days
[25] = Preemergence, 125 g ai/ha, 0 to 100 scale where 0 is no effect and 100 is complete control
[26] = Preemergence, 500 g ai/ha, 0 to 100 scale (0 no effect, 100 complete control)

## Cc1nn(-c2ccc(C(F)(F)F)cn2)nc1Cc1cccc(C(F)(F)F)c1 [Compound 106]
[1]; [12]
  Barnyardgrass plant response rating: 40
[1]; [13]
  Barnyardgrass plant response rating: 50
[2]; [12]
  Morningglory plant response rating: 100
[2]; [13]
  Morningglory plant response rating: 20
[3]; [12]
  Wheat plant response rating: 10
[3]; [13]
  Wheat plant response rating: 0
[4]; [12]
  Corn plant response rating: 10
[4]; [13]
  Corn plant response rating: 10
[5]; [14]
  Plant response rating, Blackgrass: 30
[5]; [15]
  Plant response rating, Blackgrass: 40
[5]; [16]
  Plant response rating, Blackgrass: 45
[5]; [17]
  Plant response rating, Blackgrass: 60
[5]; [18]
  Plant response rating, Blackgrass: 50
[5]; [19]
  Plant response rating, Blackgrass: 50
[5]; [20]
  Plant response rating, Blackgrass: 90
[5]; [21]
  Plant response rating, Blackgrass: 95
[6]; [14]
  Plant response rating, Ryegrass, Italian: 5
[6]; [15]
  Plant response rating, Ryegrass, Italian: 5
[6]; [16]
  Plant response rating, Ryegrass, Italian: 20
[6]; [17]
  Plant response rating, Ryegrass, Italian: 30
[6]; [18]
  Plant response rating, Ryegrass, Italian: 5
[6]; [22]
  Plant response rating, Ryegrass, Italian: 20
[6]; [20]
  Plant response rating, Ryegrass, Italian: 45
[6]; [21]
  Plant response rating, Ryegrass, Italian: 50
[7]; [14]
  Plant response rating, Crabgrass, Large: 40
[7]; [15]
  Plant response rating, Crabgrass, Large: 55
[7]; [16]
  Plant response rating, Crabgrass, Large: 65
[7]; [17]
  Plant response rating, Crabgrass, Large: 65
[7]; [18]
  Plant response rating, Crabgrass, Large: 100
[7]; [22]
  Plant response rating, Crabgrass, Large: 100
[7]; [20]
  Plant response rating, Crabgrass, Large: 100
[7]; [21]
  Plant response rating, Crabgrass, Large: 100
[8]; [14]
  Plant response rating, Johnsongrass: 0
[8]; [15]
  Plant response rating, Johnsongrass: 15
[8]; [16]
  Plant response rating, Johnsongrass: 40
[8]; [17]
  Plant response rating, Johnsongrass: 55
[8]; [18]
  Plant response rating, Johnsongrass: 0
[8]; [22]
  Plant response rating, Johnsongrass: 20
[8]; [20]
  Plant response rating, Johnsongrass: 75
[8]; [21]
  Plant response rating, Johnsongrass: 85
[9]; [14]
  Plant response rating, Nutsedge, Yellow: 0
[9]; [15]
  Plant response rating, Nutsedge, Yellow: 0
[9]; [16]
  Plant response rating, Nutsedge, Yellow: 0
[9]; [17]
  Plant response rating, Nutsedge, Yellow: 0
[9]; [18]
  Plant response rating, Nutsedge, Yellow: 0
[9]; [22]
  Plant response rating, Nutsedge, Yellow: 0
[9]; [20]
  Plant response rating, Nutsedge, Yellow: 0
[9]; [21]
  Plant response rating, Nutsedge, Yellow: 0
[10]; [14]
  Plant response rating, Pigweed: 95
[10]; [15]
  Plant response rating, Pigweed: 98
[10]; [16]
  Plant response rating, Pigweed: 98
[10]; [17]
  Plant response rating, Pigweed: 98
[10]; [18]
  Plant response rating, Pigweed: 85
[10]; [22]
  Plant response rating, Pigweed: 98
[10]; [20]
  Plant response rating, Pigweed: 100
[10]; [21]
  Plant response rating, Pigweed: 100
[11]; [14]
  Plant response rating, Soybean: 10
[11]; [15]
  Plant response rating, Soybean: 15
[11]; [16]
  Plant response rating, Soybean: 60
[11]; [17]
  Plant response rating, Soybean: 65
[11]; [18]
  Plant response rating, Soybean: 0
[11]; [22]
  Plant response rating, Soybean: 0
[11]; [20]
  Plant response rating, Soybean: 5
[11]; [21]
  Plant response rating, Soybean: 5

## Cc1nn(-c2ccc(C(F)(F)F)cc2)nc1Oc1ccnc(C(F)(F)F)c1 [Compound 120]
[1]; [23]
  Barnyardgrass plant response rating: 60
[1]; [24]
  Barnyardgrass plant response rating: 80
[1]; [25]
  Plant response rating, Barnyardgrass: 90
[1]; [26]
  Plant response rating, Barnyardgrass: 100
[2]; [23]
  Morningglory plant response rating: 90
[2]; [24]
  Morningglory plant response rating: 100
[2]; [25]
  Plant response rating, Morningglory: 10
[2]; [26]
  Plant response rating, Morningglory: 30
[3]; [23]
  Wheat plant response rating: 10
[3]; [24]
  Wheat plant response rating: 30
[3]; [25]
  Plant response rating, Wheat: 10
[3]; [26]
  Plant response rating, Wheat: 20
[4]; [23]
  Corn plant response rating: 20
[4]; [24]
  Corn plant response rating: 50
[4]; [25]
  Plant response rating, Corn: 20
[4]; [26]
  Plant response rating, Corn: 30
[5]; [14]
  Plant response rating, Blackgrass: 25
[5]; [15]
  Plant response rating, Blackgrass: 30
[5]; [16]
  Plant response rating, Blackgrass: 60
[5]; [17]
  Plant response rating, Blackgrass: 85
[5]; [18]
  Plant response rating, Blackgrass: 90
[5]; [19]
  Plant response rating, Blackgrass: 90
[5]; [20]
  Plant response rating, Blackgrass: 90
[5]; [21]
  Plant response rating, Blackgrass: 90
[6]; [14]
  Plant response rating, Ryegrass, Italian: 5
[6]; [15]
  Plant response rating, Ryegrass, Italian: 5
[6]; [16]
  Plant response rating, Ryegrass, Italian: 5
[6]; [17]
  Plant response rating, Ryegrass, Italian: 30
[6]; [18]
  Plant response rating, Ryegrass, Italian: 40
[6]; [22]
  Plant response rating, Ryegrass, Italian: 90
[6]; [20]
  Plant response rating, Ryegrass, Italian: 90
[6]; [21]
  Plant response rating, Ryegrass, Italian: 95
[7]; [14]
  Plant response rating, Crabgrass, Large: 5
[7]; [15]
  Plant response rating, Crabgrass, Large: 25
[7]; [16]
  Plant response rating, Crabgrass, Large: 25
[7]; [17]
  Plant response rating, Crabgrass, Large: 45
[7]; [18]
  Plant response rating, Crabgrass, Large: 100
[7]; [22]
  Plant response rating, Crabgrass, Large: 100
[7]; [20]
  Plant response rating, Crabgrass, Large: 100
[7]; [21]
  Plant response rating, Crabgrass, Large: 100
[8]; [14]
  Plant response rating, Johnsongrass: 0
[8]; [15]
  Plant response rating, Johnsongrass: 5
[8]; [16]
  Plant response rating, Johnsongrass: 25
[8]; [17]
  Plant response rating, Johnsongrass: 45
[8]; [18]
  Plant response rating, Johnsongrass: 25
[8]; [22]
  Plant response rating, Johnsongrass: 80
[8]; [20]
  Plant response rating, Johnsongrass: 95
[8]; [21]
  Plant response rating, Johnsongrass: 98
[9]; [14]
  Plant response rating, Nutsedge, Yellow: 0
[9]; [15]
  Plant response rating, Nutsedge, Yellow: 0
[9]; [16]
  Plant response rating, Nutsedge, Yellow: 0
[9]; [17]
  Plant response rating, Nutsedge, Yellow: 0
[9]; [18]
  Plant response rating, Nutsedge, Yellow: 0
[9]; [22]
  Plant response rating, Nutsedge, Yellow: 0
[9]; [20]
  Plant response rating, Nutsedge, Yellow: 0
[9]; [21]
  Plant response rating, Nutsedge, Yellow: 0
[10]; [14]
  Plant response rating, Pigweed: 95
[10]; [15]
  Plant response rating, Pigweed: 98
[10]; [16]
  Plant response rating, Pigweed: 98
[10]; [17]
  Plant response rating, Pigweed: 100
[10]; [18]
  Plant response rating, Pigweed: 100
[10]; [22]
  Plant response rating, Pigweed: 100
[10]; [20]
  Plant response rating, Pigweed: 100
[10]; [21]
  Plant response rating, Pigweed: 100
[11]; [14]
  Plant response rating, Soybean: 25
[11]; [15]
  Plant response rating, Soybean: 25
[11]; [16]
  Plant response rating, Soybean: 55
[11]; [17]
  Plant response rating, Soybean: 100
[11]; [18]
  Plant response rating, Soybean: 0
[11]; [22]
  Plant response rating, Soybean: 5
[11]; [20]
  Plant response rating, Soybean: 10
[11]; [21]
  Plant response rating, Soybean: 20

Reference: patent publication US9302999B2, “Substituted triazoles as herbicides” (E. I. DU PONT DE NEMOURS AND COMPANY, priority 2012, dated 2016)
